Measurements from patent US20260206755A1, “COMPOUNDS AND COMPOSITIONS HAVING KNOCK-DOWN OR BLOOD FEED INHIBITION ACTIVITY AGAINST INSECT PESTS” (priority 2017, published 2026).
Read-outs that look alike come from different tables or passages of the source.

Tested on: Anopheles stephensi
Experiment: Anopheles stephensi treated well plate contact test: knockdown and mortality
Assay type: in vivo
Method in brief: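 Well surfaces coated with ethanol solution of compound at a defined concentration, alone or with 2 ppm TFNA-AM, then dried. Five non-blood-fed 2–5-day-old adult females per well, fed 10% sucrose; knockdown scored at 1 hour, mortality at 24 and 48 hours, replicate means reported.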

[1] = test compound 0.2 ppm plus 2 ppm TFNA-AM, after 24 hours
[2] = test compound 0.2 ppm plus 2 ppm TFNA-AM, after 48 hours
[3] = test compound 0.2 ppm plus 2 ppm TFNA-AM, knockdown after 1 hour
[4] = test compound 2 ppm plus 2 ppm TFNA-AM, after 24 hours
[5] = test compound 2 ppm plus 2 ppm TFNA-AM, after 48 hours
[6] = test compound 2 ppm plus 2 ppm TFNA-AM, knockdown after 1 hour
[7] = test compound 20 ppm plus 2 ppm TFNA-AM, after 24 hours
[8] = test compound 20 ppm plus 2 ppm TFNA-AM, after 48 hours
[9] = test compound 20 ppm plus 2 ppm TFNA-AM, knockdown after 1 hour
[10] = test compound 200 ppm plus 2 ppm TFNA-AM, after 24 hours
[11] = test compound 200 ppm plus 2 ppm TFNA-AM, after 48 hours
[12] = test compound 200 ppm plus 2 ppm TFNA-AM, knockdown after 1 hour
[13] = test compound 0.2 ppm, without TFNA-AM, after 24 hours
[14] = test compound 0.2 ppm, without TFNA-AM, after 48 hours
[15] = test compound 0.2 ppm, without TFNA-AM, knockdown after 1 hour
[16] = test compound 2 ppm, without TFNA-AM, after 24 hours
[17] = test compound 2 ppm, without TFNA-AM, after 48 hours
[18] = test compound 2 ppm, without TFNA-AM, knockdown after 1 hour
[19] = test compound 20 ppm, without TFNA-AM, after 24 hours
[20] = test compound 20 ppm, without TFNA-AM, after 48 hours
[21] = test compound 20 ppm, without TFNA-AM, knockdown after 1 hour
[22] = test compound 200 ppm, without TFNA-AM, after 24 hours
[23] = test compound 200 ppm, without TFNA-AM, after 48 hours
[24] = test compound 200 ppm, without TFNA-AM, knockdown after 1 hour, adult females

Compound	mortality % 24, with TFNA-AM [1] [%]	mortality % 48, with TFNA-AM [2] [%]	Knock Down, with TFNA-AM [3] [%]	mortality % 24, with TFNA-AM [4] [%]	mortality % 48, with TFNA-AM [5] [%]	Knock Down, with TFNA-AM [6] [%]	mortality % 24, with TFNA-AM [7] [%]	mortality % 48, with TFNA-AM [8] [%]	Knock Down, with TFNA-AM [9] [%]	mortality % 24, with TFNA-AM [10] [%]	mortality % 48, with TFNA-AM [11] [%]	Knock Down, with TFNA-AM [12] [%]	mortality % 24, without TFNA-AM [13] [%]	mortality % 48, without TFNA-AM [14] [%]	Knock Down, without TFNA-AM [15] [%]	mortality % 24, without TFNA-AM [16] [%]	mortality % 48, without TFNA-AM [17] [%]	Knock Down, without TFNA-AM [18] [%]	mortality % 24, without TFNA-AM [19] [%]	mortality % 48, without TFNA-AM [20] [%]	further results
CON=C(C(=O)OC)c1ccccc1CON=C(C)c1cccc(C(F)(F)F)c1 [Trifloxystrobin]	0	0	100	60	70	100	100	100	100	100	100	100	–	–	–	–	–	–	–	–	mortality at 0.2 ppm (Anopheles stephensi, test compound 0.2 ppm, without TFNA-AM, after 24 hours, read-out: mortality % 24, without TFNA-AM): 0%; mortality at 0.2 ppm (Anopheles stephensi, test compound 0.2 ppm, without TFNA-AM, after 48 hours, read-out: mortality % 48, without TFNA-AM): 0%; pest or weed control at 0.2 ppm (Anopheles stephensi, test compound 0.2 ppm, without TFNA-AM, knockdown after 1 hour, read-out: Knock Down, without TFNA-AM): 0%; mortality at 2 ppm (Anopheles stephensi, test compound 2 ppm, without TFNA-AM, after 24 hours, read-out: mortality % 24, without TFNA-AM): 0%; mortality at 2 ppm (Anopheles stephensi, test compound 2 ppm, without TFNA-AM, after 48 hours, read-out: mortality % 48, without TFNA-AM): 0%; pest or weed control at 2 ppm (Anopheles stephensi, test compound 2 ppm, without TFNA-AM, knockdown after 1 hour, read-out: Knock Down, without TFNA-AM): 50%; mortality at 20 ppm (Anopheles stephensi, test compound 20 ppm, without TFNA-AM, after 24 hours, read-out: mortality % 24, without TFNA-AM): 0%; mortality at 20 ppm (Anopheles stephensi, test compound 20 ppm, without TFNA-AM, after 48 hours, read-out: mortality % 48, without TFNA-AM): 0%; pest or weed control at 20 ppm (Anopheles stephensi, test compound 20 ppm, without TFNA-AM, knockdown after 1 hour, read-out: Knock Down, without TFNA-AM): 70%; mortality at 200 ppm (Anopheles stephensi, test compound 200 ppm, without TFNA-AM, after 24 hours, read-out: mortality % 24, without TFNA-AM): 0%; mortality at 200 ppm (Anopheles stephensi, test compound 200 ppm, without TFNA-AM, after 48 hours, read-out: mortality % 48, without TFNA-AM): 0%; pest or weed control at 200 ppm (Anopheles stephensi, test compound 200 ppm, without TFNA-AM, knockdown after 1 hour, adult females, read-out: Knock Down, without TFNA-AM): 80%
O=c1c(-c2cccc(C(F)(F)F)c2)c([O-])[n+](Cc2cncnc2)c2ccccn12 [Triflumizopyrim]	0	0	100	50	50	100	90	100	100	100	100	100	0	0	0	0	0	0	0	10	Knock Down, without TFNA-AM [21]: 0%; mortality % 24, without TFNA-AM [22]: 40%; mortality % 48, without TFNA-AM [23]: 40%; Knock Down, without TFNA-AM [24]: 0%
Abamectin	20	27	100	47	53	100	93	100	100	100	100	100	13	20	0	13	33	0	53	87	Knock Down, without TFNA-AM [21]: 7%; mortality % 24, without TFNA-AM [22]: 100%; mortality % 48, without TFNA-AM [23]: 100%; Knock Down, without TFNA-AM [24]: 47%
Emamectin benzoate	30	20	100	60	60	100	100	100	100	100	100	100	0	0	0	0	10	0	40	90	Knock Down, without TFNA-AM [21]: 0%; mortality % 24, without TFNA-AM [22]: 40%; mortality % 48, without TFNA-AM [23]: 90%; Knock Down, without TFNA-AM [24]: 0%
Spinosad	80	100	100	100	100	100	100	80	100	100	100	100	0	0	40	0	0	40	0	0	Knock Down, without TFNA-AM [21]: 40%; mortality % 24, without TFNA-AM [22]: 40%; mortality % 48, without TFNA-AM [23]: 40%; Knock Down, without TFNA-AM [24]: 60%
